Laboratory results published in US6414147B1, “2-amino-9-alkylpurines: GABA brain receptor ligands” (Neurogen Corporation, priority 1998, dated 2002).

Row | SMILES | melting point [°C]
1 | CCCCn1cnc2c(OCC)nc(Nc3ccccc3)nc21 [compound 3, 2-(Phenylamino)-6-ethoxy-9-butyl-9H-purine] | 159 to 160
2 | CCCCn1cnc2c(OCCC)nc(Nc3ccccc3)nc21 [compound 4, 2-(Phenylamino)-6-propoxy-9-butyl-9H-purine] | 115 to 116
3 | CCCCn1cnc2c(OC(C)C)nc(Nc3ccccc3)nc21 [compound 5, 2-(Phenylamino)-6-isopropoxy-9-butyl-9H-purine] | 116 to 118
4 | CCCCn1cnc2c(OCC(C)C)nc(Nc3ccccc3)nc21 [compound 6, 2-(Phenylamino)-6-(2-methylprop-1-oxy)-9-butyl-9H-purine] | 77 to 79
5 | CCCCn1cnc2c(OCC(F)(F)F)nc(Nc3ccccc3)nc21 [compound 7, 2-(Phenylamino)-6-(2,2,2-trifluoroethoxy)-9-butyl-9H-purine] | 102 to 104
6 | CCCCn1cnc2c(SCC)nc(Nc3ccccc3)nc21 [compound 8, 2-(Phenylamino)-6-(ethylthio)-9-butyl-9H-purine] | 173 to 175
7 | CCCCn1cnc2c(OCC3CC3)nc(Nc3ccccc3)nc21 [compound 9, 2-(Phenylamino)-6-(cyclopropylmethoxy)-9-butyl-9H-purine] | 124 to 126
8 | CCCCn1cnc2c(OCCOC)nc(Nc3ccccc3)nc21 [compound 10, 2-(Phenylamino)-6-(2-methoxyethoxy)-9-butyl-9H-purine] | 129 to 131
9 | CCCCn1cnc2c(OCCOCC)nc(Nc3ccccc3)nc21 [compound 11, 2-(Phenylamino)-6-(2-ethoxyethoxy)-9-butyl-9H-purine] | 135 to 137
10 | CCCCn1cnc2c(OCCO)nc(Nc3ccccc3)nc21 [compound 12, 2-(Phenylamino)-6-(2-hydroxyethoxy)-9-butyl-9H-purine] | 108 to 110
11 | CCCCn1cnc2c(OCc3ccccc3)nc(Nc3ccccc3)nc21 [compound 14, 2-(Phenylamino)-6-benzyloxy-9-butyl-9H-purine] | 163 to 164
12 | CCCCn1cnc2c(OCc3ccccn3)nc(Nc3ccccc3)nc21 [compound 15, 2-(Phenylamino)-6-(pyrid-2-ylmethoxy)-9-butyl-9H-purine] | 136 to 138
13 | CCCCn1cnc2c(OCc3cccnc3)nc(Nc3ccccc3)nc21 [compound 16, 2-(Phenylamino)-6-(pyrid-3-ylmethoxy)-9-butyl-9H-purine] | 206 to 207
14 | CCCCn1cnc2c(OCc3ccncc3)nc(Nc3ccccc3)nc21 [compound 17, 2-(Phenylamino)-6-(pyrid-4-ylmethoxy)-9-butyl-9H-purine] | 136 to 139
15 | CCCCn1cnc2c(OCc3cccs3)nc(Nc3ccccc3)nc21 [compound 18, 2-(Phenylamino)-6-(thien-2-ylmethoxy)-9-butyl-9H-purine] | 170 to 172
16 | CCCCn1cnc2c(Oc3ccccc3)nc(Nc3ccccc3)nc21 [compound 19, 2-(Phenylamino)-6-phenoxy-9-butyl-9H-purine] | 124 to 125
17 | COc1nc(Nc2ccccc2)nc2c1ncn2CCCO [compound 21, 2-(Phenylamino)-6-methoxy-9-(3-hydroxypropyl)-9H-purine] | 90 to 94
18 | CCCCCn1cnc2c(OCC)nc(Nc3ccccc3)nc21 [compound 22, 2-(Phenylamino)-6-ethoxy-9-pentyl-9H-purine] | 174 to 176
19 | COc1nc(Nc2ccccc2)nc2c1ncn2CCC(C)C [compound 24, 2-(Phenylamino)-6-methoxy-9-(3-methylbutyl)-9H-purine] | 167 to 169
20 | COc1nc(Nc2ccccc2)nc2c1ncn2Cc1ccccc1 [compound 25, 2-(Phenylamino)-6-methoxy-9-benzyl-9H-purine] | 165 to 167
21 | CCCCn1cnc2c(OCCOCCC)nc(Nc3ccc(F)cc3)nc21 [compound 30, 2-[(4-Fluorophenyl)amino]-6-(2-prop-1-oxyethoxy)-9-butyl-9H-purine] | 149 to 150
22 | CCCCn1cnc2c(OCCCOCC)nc(Nc3ccc(F)cc3)nc21 [compound 31, 2-[(4-Fluorophenyl)amino]-6-(3-ethoxyprop-1-oxy)-9-butyl-9H-purine] | 95 to 97
23 | CCCCn1cnc2c(Oc3ccccc3)nc(Nc3ccc(F)cc3)nc21 [compound 33, 2-[(4-Fluorophenyl)amino]-6-phenoxy-9-butyl-9H-purine] | 171 to 172
24 | CCCCn1cnc2c(Oc3ccc(OCC)cc3)nc(Nc3ccc(F)cc3)nc21 [compound 36, 2-[(4-Fluorophenyl)amino]-6-(4-ethoxyphenoxy)-9-butyl-9H-purine] | 138 to 140
25 | CCCCn1cnc2c(Oc3cccnc3)nc(Nc3ccc(F)cc3)nc21.CS(=O)(=O)O [compound 37, 2-[(4-Fluorophenyl)amino]-6-(pyrid-3-yloxy)-9-butyl-9H-purine methanesulfonate] | > 300
26 | CCCCn1cnc2c(OCC)nc(Nc3ccc(OC(C)C)cc3F)nc21.CS(=O)(=O)O [compound 54, 2-[(2-Fluoro-4-isopropoxyphenyl)amino]-6-ethoxy-9-butyl-9H-purine methane sulfonate] | 138

Further lines, results first:

Row | melting point [°C] | SMILES
27 | 174 to 176 | CCCCn1cnc2c(OC)nc(Nc3ccc(OCC)nc3)nc21 [compound 1, 2-[(2-Ethoxypyrid-5-yl)amino]-6-methoxy-9-butyl-9H-purine]
28 | 172 to 174 | CCCCn1cnc2c(OC)nc(Nc3ccccc3)nc21 [compound 2, 2-(Phenylamino)-6-methoxy-9-butyl-9H-purine]
29 | 96 to 98 | CCCCn1cnc2c(OC(C)COC)nc(Nc3ccccc3)nc21 (centres unmarked) [compound 13, 2-(Phenylamino)-6-(1-methyl-2-methoxyethoxy)-9-butyl-9H-purine]
30 | 158 to 160 | CCCCCCn1cnc2c(OC)nc(Nc3ccccc3)nc21 [compound 23, 2-(Phenylamino)-6-methoxy-9-hexyl-9H-purine]
31 | 185 to 187 | CCCCn1cnc2c(OC)nc(Nc3ccc(F)cc3)nc21 [compound 27, 2-[(4-Fluorophenyl)amino]-6-methoxy-9-butyl-9H-purine]
32 | 165 to 166 | CCCCn1cnc2c(OCCOC)nc(Nc3ccc(F)cc3)nc21 [compound 28, 2-[(4-Fluorophenyl)amino]-6-(2-methoxyethoxy)-9-butyl-9h-purine]
33 | 116 to 118 | CCCCn1cnc2c(OCCOC(C)C)nc(Nc3ccc(F)cc3)nc21 [compound 29, 2-[(4-Fluorophenyl)amino]-6-(2-isopropoxyethoxy)-9-butyl-9H-purine]
34 | 88 to 90 | CCCCn1cnc2c(OCCC(C)C)nc(Nc3ccc(F)cc3)nc21 [compound 32, 2-[(4-Fluorophenyl)amino]-6-(3-methylbut-1-oxy)-9-butyl-9H-purine]
35 | 155 to 157 | CCCCn1cnc2c(Oc3ccccc3F)nc(Nc3ccc(F)cc3)nc21 [compound 34, 2-[(4-Fluorophenyl)amino]-6-(2-fluorophenoxy)-9-butyl-9H-purine]
36 | 185 to 187 | CCCCn1cnc2c(Oc3cccc(OC)c3)nc(Nc3ccc(F)cc3)nc21 [compound 35, 2-[(4-Fluorophenyl)amino]-6-(3-methoxyphenoxy)-9-butyl-9H-purine]
37 | 158 to 160 | CCCCn1cnc2c(OC)nc(Nc3ccc(OC)cc3)nc21 [compound 39, 2-[(4-Methoxyphenyl)amino]-6-methoxy-9-butyl-9H-purine]
38 | 171 to 172 | CCCCn1cnc2c(OC)nc(Nc3ccc(OCC)cc3)nc21 [compound 40, 2-[(4-Ethoxyphenyl)amino]-6-methoxy-9-butyl-9H-purine]
39 | 164 | CCCCn1cnc2c(OCC)nc(Nc3ccc(Cl)cc3)nc21 [compound 43, 2-[(4-Chlorophenyl)amino]-6-ethoxy-9-butyl-9H-purine]
40 | 101 to 103 | CCCCn1cnc2c(OC)nc(Nc3ccccc3OC)nc21 [compound 44, 2-[(2-Methoxyphenyl)amino]-6-methoxy-9-butyl-9H-purine]
41 | 77 to 79 | CCCCn1cnc2c(OC)nc(Nc3ccccc3OCC)nc21 [compound 45, 2-[(2-Ethoxyphenyl)amino]-6-methoxy-9-butyl-9H-purine]
42 | 91 to 93 | CCCCn1cnc2c(OC)nc(Nc3ccccc3C)nc21 [compound 46, 2-[(2-Methylphenyl)amino]-6-methoxy-9-butyl-9H-purine]
43 | 104 to 106 | CCCCn1cnc2c(OC)nc(Nc3ccc(OC)cc3OC)nc21 [compound 47, 2-[(2,4-Dimethoxyphenyl)amino]-6-methoxy-9-butyl-9H-purine]
44 | 86 to 88 | CCCCn1cnc2c(OCC)nc(Nc3ccc(OC)cc3OC)nc21 [compound 48, 2-[(2,4-Dimethoxyphenyl)amino]-6-ethoxy-9-butyl-9H-purine]
45 | 88 to 89 | CCCCn1cnc2c(OCCOC)nc(Nc3ccc(OC)cc3OC)nc21 [compound 49, 2-[(2,4-Dimethoxyphenyl)amino]-6-(2-methoxyethoxy)-9-butyl-9H-purine]
46 | 129 to 131 | CCCCn1cnc2c(Oc3ccccc3)nc(Nc3ccc(OC)cc3OC)nc21 [compound 50, 2-[(2,4-Dimethoxyphenyl)amino]-6-phenoxy-9-butyl-9H-purine]
47 | 97 to 99 | CCCCn1cnc2c(OCC)nc(Nc3ccc(C)cc3C)nc21 [compound 51, 2-[(2,4-Dimethylphenyl)amino]-6-ethoxy-9-butyl-9H-purine]
48 | 160 to 162 | CCCCn1cnc2c(OC)nc(Nc3ccc(OC)c(OC)c3)nc21 [compound 52, 2-[(3,4-Dimethoxyphenyl)amino]-6-methoxy-9-butyl-9H-purine]
49 | 178 to 179 | CCCCn1cnc2c(OC)nc(Nc3ccc(OC)c(F)c3)nc21 [compound 53, 2-[(3-Fluoro-4-methoxyphenyl)amino]-6-methoxy-9-butyl-9H-purine]
50 | 171 to 172 | CCCCn1cnc2c(OC)nc(Nc3ccc(OC)nc3)nc21 [compound 55, 2-[(2-Methoxypyrid-5-yl)amino]-6-methoxy-9-butyl-9H-purine]
